The compounds below were run on HT29 cells (assay: Inhibition of cell necrosis (CCK8 method), induced programmed necrosis of HT29 cells). Details: Homo sapiens, HT-29; rescue from necrosis induced by TNF-α 20 ng/mL, AT-406 1 μM, Z-VAD-FMK 20 μM; 16-20 hours; CCK-8, OD 450 nm.
Assay type: cell-based
In short: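 Rescue from programmed necrosis was scored by CCK-8 absorbance at 450 nm after 16-20 h of TNF-α (20 ng/mL), AT-406 (1 μM) and Z-VAD-FMK (20 μM) at 37 °C, 5% CO2. HT29 cells had received compound 30 min earlier across nine 4-fold dilutions (top 25000 nM final). IC50 came from % inhibition relative to uninduced and induced-only wells.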

| SMILES | IC50 [nM] |
| --- | --- |
| CC(C)(O)CCCOc1ccc(Cl)c(-c2ccnc(NC(=O)c3nnc(Cc4ccc(F)c(Cl)c4F)[nH]3)c2)c1 [Example 501, 5-(3-chloro-2,4-difluorobenzyl)-N-(4-(2-chloro-5-((4-hydroxy-4-methylpentyl)oxy)phenyl)pyridin-2-yl)-4H-1,2,4-triazole-3-carboxamide] | 100 to 1000 |
| Cc1ccc(OCCCCCCCCO)cc1-c1ccnc(NC(=O)c2nnc(Cc3ccccc3)[nH]2)c1 [Example 154, 5-benzyl-N-(4-(5-((8-hydroxyoctyl)oxy)-2-methylphenyl)pyridin-2-yl)-4H-1,2,4-triazole-3-carboxamide] | ≤ 100 |
| Cc1ccc(S(=O)(=O)CCCC(C)(C)O)cc1-c1ccnc(NC(=O)c2nnc(CC3CCCC3)[nH]2)c1 [Example 475, 5-(cyclopentylmethyl)-N-(4-(5-((4-hydroxy-4-methylpentyl)sulfonyl)-2-methylphenyl)pyridin-2-yl)-4H-1,2,4-triazole-3-carboxamide] | ≤ 100 |
| O=C(Nc1cc(-c2cc(OCC3CCOCC3)ccc2Cl)c(Cl)cn1)c1nnc(Cc2ccccc2F)[nH]1 [Example 424, N-(5-chloro-4-(2-chloro-5-((tetrahydro-2H-pyran-4-yl)methoxy)phenyl)pyridin-2-yl)-5-(2-fluorobenzyl)-4H-1,2,4-triazole-3-carboxamide] | 100 to 1000 |
| COCCOc1ccc(Cl)c(-c2ccnc(NC(=O)c3nnc(CC4CCCC4)[nH]3)c2)c1 [Example 381, N-(4-(2-chloro-5-(2-methoxyethoxy)phenyl)pyridin-2-yl)-5-(cyclopentylmethyl)-4H-1,2,4-triazole-3-carboxamide] | ≤ 100 |
| CC(C)(O)CCCCOc1ccc(F)c(-c2cc(NC(=O)c3nnc(CC4CCCCC4)[nH]3)ncc2Cl)c1 [Example 326, 5-(cyclohexylmethyl)-N-(5-chloro-4-(2-fluoro-5-((5-hydroxyl-5-methylhexyl)oxy)phenyl)pyridin-2-yl)-4H-1,2,4-triazole-3-carboxamide] | 100 to 1000 |
| Cc1c(F)cc(OCCCC(C)(C)O)cc1-c1ccnc(NC(=O)c2nnc(Cc3ccccc3F)[nH]2)c1 [Example 236, 5-(2-fluorobenzyl)-N-(4-(3-fluoro-5-((4-hydroxy-4-methylpentyl)oxy)-2-methylphenyl)pyridin-2-yl)-4H-1,2,4-triazole-3-carboxamide] | ≤ 100 |
| O=C(Nc1cc(-c2cc(OCCC3CCOCC3)ccc2Cl)ncn1)c1nnc(Cc2ccccc2F)[nH]1 [Example 471, N-(6-(2-chloro-5-(2-(tetrahydro-2H-pyran-4-yl)ethoxy)phenyl)pyrimidin-4-yl)-5-(2-fluorobenzyl)-4H-1,2,4-triazole-3-carboxamide] | ≤ 100 |
| CCC(O)(CC)CCCOc1ccc(F)c(-c2cc(NC(=O)c3nnc(CC4CCCCC4)[nH]3)ncc2Cl)c1 [Example 324, 5-(cyclohexylmethyl)-N-(5-chloro-4-(5-((4-ethyl-4-hydroxyhexyl)oxy)-2-fluorophenyl)pyridin-2-yl)-4H-1,2,4-triazole-3-carboxamide] | 100 to 1000 |
| Cc1ccc(S(C)(=O)=O)cc1-c1ccnc(NC(=O)c2nnc(Cc3ccccc3)[nH]2)c1 [Example 37, 5-benzyl-N-(4-(2-methyl-5-(methylsulfonyl)phenyl)pyridin-2-yl)-4H-1,2,4-triazole-3-carboxamide] | 100 to 1000 |
| CCOCCOc1ccc(Cl)c(-c2ccnc(NC(=O)c3nnc(CC4CCCCC4)[nH]3)c2)c1 [Example 386, N-(4-(2-chloro-5-(2-ethoxyethoxy)phenyl)pyridin-2-yl)-5-(cyclohexylmethyl)-4H-1,2,4-triazole-3-carboxamide] | ≤ 100 |
| CCOc1cccc(C)c1-c1ccnc(NC(=O)c2nnc(Cc3ccccc3)[nH]2)c1 [Example 93, 5-benzyl-N-(4-(2-ethoxy-6-methylphenyl)pyridin-2-yl)-4H-1,2,4-triazole-3-carboxamide] | 1000 to 10000 |
| COC(=O)C=Cc1ccc(C)c(-c2ccnc(NC(=O)c3nnc(Cc4ccccc4)[nH]3)c2)c1 [Example 480, Methyl 3-(3-(2-(5-benzyl-4H-1,2,4-triazol-3-carboxamido)pyridin-4-yl)-4-methylphenyl)acrylate] | ≤ 100 |
| Cc1cnc(NC(=O)c2nnc(Cc3ccccc3F)[nH]2)cc1-c1cc(OCC2CCOCC2)ccc1F [Example 331, N-(4-(2-fluoro-5-((tetrahydro-2H-pyran-4-yl)methoxy)phenyl)-5-methylpyridin-2-yl)-5-(2-fluorobenzyl)-4H-1,2,4-triazole-3-carboxamide] | 1000 to 10000 |
| Cc1ccc(OCCCC(C)(C)O)cc1-c1ccnc(NC(=O)c2nnc(Cc3c(F)ccc(F)c3F)[nH]2)c1 [Example 216, 5-(2,3,6-trifluorobenzyl)-N-(4-(5-((4-hydroxy-4-methylpentyl)oxy)-2-methylphenyl)pyridin-2-yl)-4H-1,2,4-triazole-3-carboxamide] | ≤ 100 |
| COCCOc1ccc(C(F)(F)F)c(-c2ccnc(NC(=O)c3nnc(Cc4ccccc4F)[nH]3)c2)c1 [Example 280, 5-(2-fluorobenzyl)-N-(4-(5-(2-methoxyethoxy)-2-(trifluoromethyl)phenyl)pyridin-2-yl)-4H-1,2,4-triazole-3-carboxamide] | ≤ 100 |

| SMILES | IC50 [nM] |
| --- | --- |
| Cc1ccc(OCC2CCOC2)cc1-c1ccnc(NC(=O)c2nnc(Cc3ccccc3)[nH]2)c1 (stereo not shown) [Example 122, 5-benzyl-N-(4-(2-methyl-5-((tetrahydrofuran-3-yl)methoxy)phenyl)pyridin-2-yl)-4H-1,2,4-triazole-3-carboxamide] | ≤ 100 |
| CC(C)(O)COc1ccc(Cl)c(-c2ccnc(NC(=O)c3nnc(CC4CCCC4)[nH]3)c2)c1 [Example 365, N-(4-(2-chloro-5-(2-hydroxyl-2-methylpropoxy)phenyl)pyridin-2-yl)-5-(cyclopentylmethyl)-4H-1,2,4-triazole-3-carboxamide] | ≤ 100 |
| Cc1ccc(OCCCC(C)(C)O)cc1-c1ccnc(NC(=O)c2nnc(Cc3ccccc3)[nH]2)c1 [Example 160, 5-benzyl-N-(4-(5-((4-hydroxy-4-methylpentyl)oxy)-2-methylphenyl)pyridin-2-yl)-4H-1,2,4-triazole-3-carboxamide] | ≤ 100 |
| COCCCOc1ccc(C(F)(F)F)c(-c2ccnc(NC(=O)c3nnc(Cc4ccccc4)[nH]3)c2)c1 [Example 295, 5-benzyl-N-(4-(5-(3-methoxypropoxy)-2-(trifluoromethyl)phenyl)pyridin-2-yl)-4H-1,2,4-triazole-3-carboxamide] | ≤ 100 |
| Cc1ccc(OCCC2CCOCC2)cc1-c1cc(NC(=O)c2nnc(Cc3ccccc3F)[nH]2)ncn1 [Example 446, 5-(2-fluorobenzyl)-N-(6-(2-methyl-5-(2-(tetrahydro-2H-pyran-4-yl)ethoxy)phenyl)pyrimidin-4-yl)-4H-1,2,4-triazole-3-carboxamide] | ≤ 100 |
| Cc1cnc(NC(=O)c2nnc(Cc3ccccc3F)[nH]2)cc1-c1cc(OCCCC(C)(C)O)ccc1F [Example 322, N-(4-(2-fluoro-5-((4-hydroxy-4-methylpentyl)oxy)phenyl)-5-methylpyridin-2-yl)-5-(2-fluorobenzyl)-4H-1,2,4-triazole-3-carboxamide] | 100 to 1000 |
| O=C(Nc1cc(-c2cc(OCCCCCO)ccc2Cl)ccn1)c1nnc(CC2CCCC2)[nH]1 [Example 377, N-(4-(2-chloro-5-((5-hydroxypentyl)oxy)phenyl)pyridin-2-yl)-5-(cyclopentylmethyl)-4H-1,2,4-triazole-3-carboxamide] | ≤ 100 |
| Cc1cnc(NC(=O)c2nnc(CC3CCCCC3)[nH]2)cc1-c1cc(OCC2CCOCC2)ccc1Cl [Example 427, N-(4-(2-chloro-5-((tetrahydro-2H-pyran-4-yl)methoxy)phenyl)-5-methylpyridin-2-yl)-5-(cyclohexylmethyl)-4H-1,2,4-triazole-3-carboxamide] | 100 to 1000 |
| Cc1ccc(OCCC2OCCO2)cc1-c1ccnc(NC(=O)c2nnc(Cc3ccccc3)[nH]2)c1 [Example 137, N-(4-(5-(2-(1,3-dioxolan-2-yl)ethoxy)-2-methylphenyl)pyridin-2-yl)-5-benzyl-4H-1,2,4-triazole-3-carboxamide] | ≤ 100 |
| CC(C)OCCOc1ccc(Cl)c(-c2ccnc(NC(=O)c3nnc(Cc4ccccc4)[nH]3)c2)c1 [Example 387, 5-benzyl-N-(4-(2-chloro-5-(2-isopropoxyethoxy)phenyl)pyridin-2-yl)-4H-1,2,4-triazole-3-carboxamide] | ≤ 100 |
| COCCOc1ccc(C)c(-c2ccnc(NC(=O)c3nnc(Cc4ccccc4)[nH]3)c2)c1 [Example 128, 5-benzyl-N-(4-(5-(2-methoxyethoxy)-2-methylphenyl)pyridin-2-yl)-4H-1,2,4-triazole-3-carboxamide] | ≤ 100 |
| O=C(Nc1cc(-c2cccc3c2OCC3)ccn1)c1nnc(Cc2ccccc2)[nH]1 [Example 38, 5-benzyl-N-(4-(2,3-dihydrobenzofuran-7-yl)pyridin-2-yl)-4H-1,2,4-triazole-3-carboxamide] | 1000 to 10000 |
| Cc1ccc(OCCCCC(C)(C)O)cc1-c1ccnc(NC(=O)c2nnc(CC3CCCC3)[nH]2)c1 [Example 223, 5-(cyclopentylmethyl)-N-(4-(5-((5-hydroxyl-5-methylhexyl)oxy)-2-methylphenyl)pyridin-2-yl)-4H-1,2,4-triazole-3-carboxamide] | ≤ 100 |
| Cc1ccc(OCCCC(C)(C)O)cc1-c1ccnc(NC(=O)c2nnc(Cc3cc(F)c(F)cc3F)[nH]2)c1 [Example 218, 5-(2,4,5-trifluorobenzyl)-N-(4-(5-((4-hydroxy-4-methylpentyl)oxy)-2-methylphenyl)pyridin-2-yl)-4H-1,2,4-triazole-3-carboxamide] | ≤ 100 |
| Cc1ccc(OCCCC(C)(C)O)cc1-c1cc(NC(=O)c2nnc(Cc3ccccc3)[nH]2)ncn1 [Example 432, 5-benzyl-N-(6-(5-((4-hydroxy-4-methylpentyl)oxy)-2-methylphenyl)pyrimidin-4-yl)-4H-1,2,4-triazole-3-carboxamide] | ≤ 100 |

Reference: patent US12435060B2, “Acylamino bridged heterocyclic compound, and composition and application thereof” (BEIJING SCITECH-MQ PHARMACEUTICALS LIMITED, priority 2019, dated 2025)
